Experiments:
[1] = Oral bioavailability in rat at 2 mg/kg; assay type: ADME, organism-based; conditions: in vivo
[2] = Fraction unbound in human plasma; assay type: ADME, cell-free
[3] = Oral bioavailability in cynomolgus monkey at 2 mg/kg; assay type: ADME, organism-based, Macaca fascicularis; conditions: in vivo

bioavailability [1]: 98.5%
fraction unbound [2]: 0.003
bioavailability [3]: 69%
Structure (SMILES): CCS(=O)(=O)Nc1cc(F)c(-c2ccc(C#N)n2C)c(F)c1
